The record followed here is patent US10493087B2, “Sialylation-increasing therapies for diseases associated with oxidative stress” (THE UNITED STATES OF AMERICA, AS REPRESENTED BY THE …, priority 2015, dated 2019).

Series [1] concerns GNE Myopathy myotubes. Briefly: ROS generation under pro-oxidants (H2O2 or menadione), ΔDCF fluorescence. The class given is cell-based, mice. As for the experimental part:
(§1) Cell cultures and myotubes analysis: Myocytes from Gne^−/−hGNED176V-Tg mice and littermate controls were proliferated in DMEM containing 20% fetal bovine serum and 1% chicken embryo extracts in a 5% CO2 and induced to differentiation in a serum free medium, OPTIPRO™ SFM (Gibco), to make the cells hyposialylated. Where indicated, myotubes were treated with 5 mM NeuAc (Japan Food and Liquor Alliance) or 5 mM NAC (Sigma) for 72 h.
To evaluate the ROS generation under pro-oxidants, myotubes cultured in each condition were loaded with 5 μM DCFH-DA for 1 h and recovered in the different concentrations of H2O2 or menadione-containing medium. After 30 min incubation in dark at 37° C., the microplate containing cells with pro-oxidants were placed in a plate reader and fluorescence was captured at every 5 min until it reached a plateau. Maximum fluorescence of each well was used for analysis.

In series [2] the test system is GNE Myopathy myotubes. Briefly: Intracellular ROS (DCF fluorescence) in cultured myotubes. The class given is cell-based, mice. Particulars: GNE Myopathy myotubes treated with 5 mM for 72 h; mean±SEM; untreated 1113±30, littermate controls 115±15. As for the experimental part: as §1
For the analysis of intracellular ROS, a popular fluorescence-based probe, 2′,7′-dichlorodihydrofluorescein diacetate (DCFH-DA) (Wang et al., Free Radical Biology and Medicine. 1999; 27:612-616; Halliwell and Whiteman, Br J Pharmacol. 2004; 142:231-255) was used. Cells were loaded with 5 μM DCFH-DA (Invitrogen) in PBS for an hour and recovered with phenol red-free DMEM (Gibco) for 30 min at 37° C. in a 5% CO2 incubator. Then the cells were placed in a CYTOFLUOR® Series 4000 multi-well fluorescence plate reader (PerSeptive Biosystems) with temperature maintained at 37° C. The excitation filter was set at 485 nm and the emission filter was set at 530 nm. The fluorescence from each well was captured and recorded.

Another series deals with β-amyloid. Briefly: β-amyloid expression by ELISA in muscle homogenates. The class given is in vivo, mice. Particulars: after NAC treatment. (In general: ELISA stands for enzyme-linked immunosorbent assay.)
Series [3] can be described thus: Safety of long term NAC treatment (side effects, serum chemistry). It counts as in vivo, mice. The source says:
N-Acetylcysteine (NAC) Treatment Protocols: Gne^−/−hGNED176V-Tg mice were randomly divided into high dose NAC (n=13), low dose NAC (n=13), or untreated control (n=17) groups. For NAC (Sigma) treatment, mice were provided ad libitum access to drinking water containing high dose NAC (1.0% w/v) or low dose NAC (0.1% w/v), which gives an average dose of 1.5 g/kg for high dose group and of 0.15 g/kg for low dose group per day. There was no difference in water consumption between mice receiving NAC supplemented water or regular drinking water. Treatment was initiated from the average age of 26 weeks until the mice reached at least 55 weeks. Three littermates groups (high dose NAC; n=7, low dose NAC; n=7, or untreated control; n=6) were treated in the same way.

Series [4] deals with GNE Myopathy myotubes. The experiment in a line: Cell viability assay under pro-oxidants (propidium iodide/Hoechst co-staining). The class given is cell-based, mice. Particulars: treated GNE Myopathy myotubes under menadione exposure. As for the experimental part: as §1
For the cell viability assay, myotubes were exposed to H2O2 for 24 h and to menadione for 6 h before staining. Nuclear staining with Hoechst 33342 (Thermo Scientific) and propidium iodide (PI) (Dojindo) was used for morphological assessment of apoptosis by fluorescence microscopy (Lee and Shacter, Journal of Biological Chemistry. 1999; 274:19792-19798). Minimum 200 nuclei were counted and cell viability was calculated by the exclusion of PI-stained nuclei from Hoechst 33342-stained nuclei.

In series [5] the test system is Gne−/−hGNED176V-Tg mice. The experiment in a line: Motor performance analysis (treadmill performance and endurance tests). It counts as in vivo. Particulars: vs untreated. On the procedure:
N-Acetylcysteine (NAC) Treatment Protocols: […] were randomly divided into high dose NAC (n=13), low dose NAC (n=13), or untreated control (n=17) groups. […] There was no difference in water consumption between mice receiving NAC supplemented water or regular drinking water. […] Three littermates groups (high dose NAC; n=7, low dose NAC; n=7, or untreated control; n=6) were treated in the same way. Motor performance analysis: The motor performance was evaluated using treadmill exercise as previously reported (9, 10) with minor modification. Briefly, after 7 days of acclimation on the treadmill, two exercise tests were performed on separate days. […] The time of exhaustion was used to calculate the total distance of the mice ran during the exercise. The endurance exercise consisted of a 60-min treadmill run at 20 m/min with a […] incline, during which the number of beam breaks or rests were recorded. Both tests were done twice with 2 days rest in between.

Series [6] relates to Gne−/−hGNED176V-Tg mice. Briefly: Muscle contractile properties analysis (gastrocnemius). To be noted: for Peak isometric twitch force (Pt) / Maximum tetanic force (Po): gastrocnemius; for Peak isometric twitch force (Pt): untreated 167.1±6.0; for Maximum tetanic force (Po): untreated 526.7±24.1; for Specific isometric force (Pt/CSA): untreated 16.3±2.6; for Specific tetanic force (Po/CSA): untreated 51.4±8.9. It counts as in vivo. As for the experimental part:
N-Acetylcysteine (NAC) Treatment Protocols: […] were randomly divided into high dose NAC (n=13), low dose NAC (n=13), or untreated control (n=17) groups. […] There was no difference in water consumption between mice receiving NAC supplemented water or regular drinking water. […] Three littermates groups (high dose NAC; n=7, low dose NAC; n=7, or untreated control; n=6) were treated in the same way. Muscle contractile properties analysis: The contractile properties of the gastrocnemius and tibialis anterior muscles were measured according to previous protocol ([…] et al., Nat Med. 2009; 15:690-695; […] et al., Physiol Genomics. 2008; 35:106-115). After the mouse was anesthetized with intraperitoneal sodium pentobarbital (50 mg per kg body weight), the entire skeletal muscles were isolated along with the proximal bone of origin intact. Then the muscle was mounted in a vertical chamber and connected to a force-displacement and length servo system. […] With the muscle held at L0 and duration changed to 3 ms, the force developed during trains of stimulation pulses (10 to 100 Hz) was recorded and the maximum absolute tetanic force (Po) was determined. Absolute force was normalized with the physiologic cross-sectional area (CSA; muscle weight divided by the product of L0 and 1.066 g/cm^3) to obtain specific force (Pt/CSA and Po/CSA).

Consider `CC(=O)N[C@@H](CS)C(=O)O` [NAC, N-acetylcysteine], for which the “Protective effect in the high oxidative stress condition” value in the series on GNE Myopathy myotubes [1] (GNE Myopathy myotubes, H2O2 or menadione, more evident for menadione) was “worked effectively”. Besides, in the series on GNE Myopathy myotubes [1] (treated GNE Myopathy myotubes under menadione exposure), the “ΔDCF fluorescence compared to littermate myotubes” value is “comparable”. Moreover, the “Mean DCF fluorescence (intracellular ROS generation)” value with GNE Myopathy myotubes [2] is recorded as 191±10 AFU. In the series on β-amyloid, the “β-amyloid expression by ELISA in muscle homogenates” value is given as “decreased”. Further, the Adverse side effects result in series [3] (long term treatment of mice) is recorded as “No adverse side effects”. Further, in series [3] (treated vs untreated mice), the Alkaline phosphatase entry is “no difference”, the Blood urea nitrogen entry was “no difference” and the Serum aspartate aminotransferase result was “no difference”. Further, the “Cell viability compared to littermate myotubes” value with GNE Myopathy myotubes [4] is recorded as “even better”. The “Treadmill performance and endurance tests” value in the series with Gne−/−hGNED176V-Tg mice [5] (high dose (HD) 1.5 g/kg per day in drinking water) is “significantly improved”. Further, in the series on Gne−/−hGNED176V-Tg mice [5] (low dose (LD) 0.15 g/kg per day in drinking water), the “Motor function (treadmill)” value is “better motor function”. Also, in the series with Gne−/−hGNED176V-Tg mice [6] (HD group 1.5 g/kg per day), the “Peak isometric twitch force (Pt)” value came to 228.5±15.0 mN, the “Maximum tetanic force (Po)” value is 687.5±52.4 mN, the “Specific isometric force (Pt/CSA)” value is 22.5±5.1 mN/mm^2 and the “Specific tetanic force (Po/CSA)” value turned out to be 67.5±15.7 mN/mm^2. In the series on Gne−/−hGNED176V-Tg mice [6] (LD group 0.15 g/kg per day), the “Peak isometric twitch force (Pt)” value amounted to 233.6±10.0 mN, the “Maximum tetanic force (Po)” value is 735.0±43.0 mN, the “Specific isometric force (Pt/CSA)” value amounted to 23.4±3.3 mN/mm^2 and the “Specific tetanic force (Po/CSA)” value is on record as 73.5±13.5 mN/mm^2. For the same compound, the “Increase of absolute contractile forces (Pt and Po) in littermate mice” value with Gne−/−hGNED176V-Tg mice [6] (littermate control mice with NAC supplement) is reported as “not statistically significant”.
